The RepoRT retention time repository (doi:10.1093/pcp/pcn183)
Counter-ions that a name gives are not always drawn.

Assay: RP, Waters ACQUITY UPLC BEH C18, 38 °C, 0.24 mL/min; A: water + 0.1% formic acid, pH 3; B: acetonitrile + 0.1% formic acid, pH 3; gradient (min/%B) 0/0 0.25/0 0.4/9 0.8/17 1.9/100 2.1/100 2.11/0 3/0
Settings: stereoisomer not certain

SMILES | LC retention time
CCC(C(=O)O)C(=O)O [Ethylmalonic acid] | 1.12 min
N[C@@H](Cc1ccc(O)c(O)c1)C(=O)O [3,4-Dihydroxy-L-phenylalanine] | 0.4 min
COc1ccc(C=CC(=O)O)cc1 [4-Methoxycinnamic acid] | 1.65 min
CCCC(O)C(=O)O (racemic) [DL-2-Hydroxyvaleric acid sodium salt hydrate] | 1.14 min
O=P(O)(O)OCC1OC(O)CC1O (stereo not given) [2-Deoxyribose-5-phosphate sodium salt] | 0.18 min
Nc1ncn[nH]1 [3-Amino-1,2,4-triazole] | 0.18 min
CCC=CCC1C(=O)CCC1CC(=O)O (racemic) [(+-)-Jasmonic acid] | 1.68 min
NC(N)=NCC(=O)O [Glycocyamine] | 0.18 min
CC(C)CC(O)C(=O)O (stereo not given) [2-Hydroxyisocaproic acid] | 1.34 min
NCCc1ccc(O)cc1 [Tyramine] | 0.67 min
O=C(O)c1ccc(O)c(O)c1 [3,4-Dihydroxybenzoic acid] | 1.14 min
OCC1OC(OC2C(O)C(O)C(O)C(O)C2O)C(O)C(O)C1O (stereo not given) [Galactinol Dihydrate] | 0.16 min
OCCNCCO [Diethanolamine] | 0.16 min
CC[C@H](C)[C@H](N)CC(=O)O [L-beta-Homoisoleucine hydrochloride] | 1.1 min
OC[C@@H](O)[C@H](O)CO (racemic) [DL-Threitol] | 0.17 min
O=c1cc[nH]cc1 [4-Hydroxypyridine] | 0.25 min
Cc1cnc(=O)[nH]c1N [5-Methylcytosine hydrochloride] | 0.25 min
O=C1CC(c2ccc(O)c(O)c2)Oc2cc(O)cc(O)c21 (stereo not given) [Eriodictyol] | 1.59 min
Cn1c(=O)[nH]c2ncn(C)c2c1=O [1,7-Dimethylxanthine] | 1.15 min
O=C(O)CC(C(=O)O)C(O)C(=O)O (racemic) [DL-Isocitric acid trisodium salt] | 0.24 min
C[N+](C)(C)CCOP(=O)([O-])OCC(O)CO (stereo not given) [sn-Glycero-3-phosphocholine 1:1 cadmium chloride adduct] | 0.17 min
CCCCc1ccc(C(=O)O)nc1 [Fusaric acid] | 1.37 min
CC1OC(OCC2OC(Oc3cc4c(O)cc(O)cc4[o+]c3-c3cc(O)c(O)c(O)c3)C(O)C(O)C2O)C(O)C(O)C1O (stereo not given) | 1.15 min
CC(=O)Nc1ccc(O)cc1 [Acetaminophen] | 1.15 min
CC1(C(=O)O)CCC2(C)CCC3(C)C(=CC(=O)C4C5(C)CCC(OC6OC(C(=O)O)C(O)C(O)C6OC6OC(C(=O)O)C(O)C(O)C6O)C(C)(C)C5CCC43C)C2C1 (stereo not given) [Glycyrrhizin] | 1.7 min
NCC(=O)O [Glycine] | 0.16 min
COc1cc(C=Cc2cc(O)cc(OC3OC(CO)C(O)C(O)C3O)c2)ccc1O (stereo not given) [E-4,5'-dihydroxy-3-methoxy-3'-glucopyranosylstilbene] | 1.42 min

SMILES | LC retention time
O=C[C@H](O)[C@H](O)COP(=O)(O)O [D-Erythrose-4-phosphate sodium salt] | 0.16 min
O=c1[nH]cnc2c1ncn2C1CC(O)C(COP(=O)(O)O)O1 (stereo not given) [2'-Deoxyinosine-5'-monophosphate sodium salt] | 0.7 min
NCC(O)c1ccc(O)c(O)c1 (single isomer, unassigned; (-)) [(-)-Norepinephrine] | 0.19 min
O=S(=O)(O)Oc1c[nH]c2ccccc12 [3-Indoxylsulfate potassium salt] | 1.24 min
N[C@@H](CCSSCC[C@H](N)C(=O)O)C(=O)O (racemic) [DL-homocystine] | 0.23 min
CC(O)(CC(=O)O)C(=O)O (single isomer, unassigned; (-)) [(-)-Citramalic acid] | 0.51 min
CC(C)[C@@H](O)C(=O)O [D-alpha-Hydroxyisovaleric acid] | 1.14 min
NCCCCN [1,4-Diaminobutane] | 0.14 min
Nc1ccc(C(=O)NCC(=O)O)cc1 [4-Aminohippurate] | 0.93 min
CC1OC(O)C(O)C(O)C1O (stereo not given) | 0.21 min
O=c1c(-c2ccc(O)cc2)coc2cc(O)ccc12 [Daidzein] | 1.57 min
CN=C(N)N [Methylguanidine hydrochloride] | 0.18 min
C[C@@H](N)P(=O)(O)O [(S)-(+)-1-Aminoethylphosphonic acid] | 0.16 min
CCCCCCCCCCCCCC=CC(O)C(N)COC1OC(CO)C(O)C(O)C1O [D-Glucosyl-beta1-1'-D-erythoro-Sphingosine] | 1.84 min
OCC1OC(Oc2cc3c(O)cc(O)cc3[o+]c2-c2ccc(O)cc2)C(O)C(O)C1O (stereo not given) [Callistephin Chloride] | 1.25 min
C[n+]1cccc(C(N)=O)c1 [1-Methylnicotinamide chloride] | 0.18 min
O=C(O)/C=C/c1ccc(O)cc1 [4-Coumaric acid] | 1.41 min
c1ccc(NC[C@@H]2CCCN2)cc1 [(S)-(+)-2-(anilinomethyl)pyrrolidine] | 1.27 min
NC12CC3CC(CC(C3)C1)C2 [Amantadine hydrochloride] | 1.28 min
O=c1ccn(C2CC(O)C(COP(=O)(O)O)O2)c(=O)[nH]1 (stereo not given) [2'-Deoxyuridine-5'-monophosphate disodium salt] | 0.4 min
C[N+](C)(C)CCO [Choline chloride] | 0.17 min
COc1cc(CNC(=O)CCCCC=CC(C)C)ccc1O [Capsaicin] | 1.93 min
CC(N)CC(=O)O (racemic) [DL-beta-Aminobutyric acid] | 0.18 min
N#Cc1cccnc1 [3-cyanopyridine] | 1.18 min
CC(CO)CCNc1ncnc2nc[nH]c12 (racemic) [DL-Dihydrozeatin] | 1.11 min
CCC(C)C(=O)C(=O)O (racemic) [(+-)-3-Methyl-2-oxovaleric acid sodium salt] | 1.21 min

Other lines, results leading:

LC retention time | SMILES
1.43 min | O=c1c(OC2OCC(O)C(O)C2O)c(-c2ccc(O)c(O)c2)oc2cc(O)cc(O)c12 [Quercetin-3-D-xyloside]
0.14 min | NCCCCNCCCN [Spermidine]
0.16 min | NCCS(=O)O [Hypotaurine]
0.56 min | CCCCCCCCCCCCCCCC(O)C(CO)NC(=O)CCCCCCC [N-Octanoylsphinganine,D-erythro]
0.38 min | Cc1ncc(CO)c(C=O)c1O [pyridoxal hydrochrolide]
0.24 min | NC(=O)c1ccc[n+](C2OC(COP(=O)([O-])O)C(O)C2O)c1 (stereo not drawn) [beta-Nicotinamide mononucleotide]
1.81 min | C=CC(C)(O)CCC=C(C)CCC=C(C)C (stereo not drawn) [cis-Nerolidol]
0.7 min | O=c1[nH]c(=O)c2cn[nH]c2[nH]1 [Oxypurinol]
0.17 min | C[C@@H](O)[C@H](N)C(=O)O [L-Threonine]
1.36 min | O=C(O)C(=O)Cc1ccccc1 [Sodium phenylpyruvate]
1.16 min | CC(=CCNc1ncnc2c1ncn2C1OC(CO)C(O)C1O)CO (stereo not drawn) [trans-Zeatin-riboside]
1.45 min | COc1cc(-c2oc3cc(O)cc(O)c3c(=O)c2OC2OC(CO)C(O)C(O)C2O)cc(OC)c1O (stereo not given) [syringetin-3-O-glucoside]
0.14 min | NCCC[C@H](N)C(=O)O [L-Ornithine monohydrochloride]
1.35 min | O=c1cc(-c2ccc(O)c(OC3OC(CO)C(O)C(O)C3O)c2)oc2cc(OC3OC(CO)C(O)C(O)C3O)cc(O)c12 (stereo not given) [luteolin-3',7-di-O-glucoside]
1.57 min | Cc1cc2nc3cc(C)c(N)cc3[n+](-c3ccccc3)c2cc1N [Safranine]
0.17 min | NC(=O)CC[C@H](N)C(=O)O [L-Glutamine]

LC retention time | SMILES
1.19 min | O=C(O)c1cc(=O)c2ccccc2[nH]1 [Kynurenic acid]
0.21 min | O=c1ccn(C2OC(COP(=O)(O)OP(=O)(O)OC3OCC(O)C(O)C3O)C(O)C2O)c(=O)[nH]1 (stereo not given) [UDP-xylose]
0.44 min | Nc1nc2c(ncn2C2OC(COP(=O)(O)O)C(O)C2O)c(=O)[nH]1 (stereo not given) [Guanosine-5'-monophosphate]
0.17 min | NC(CSS(=O)(=O)O)C(=O)O (stereo not given) [S-Sulfocysteine]
0.16 min | N[C@@H](CO)C(=O)O [L-Serine]
1.22 min | COc1cc(-c2[o+]c3cc(O)cc(O)c3cc2OC2OC(CO)C(O)C(O)C2O)cc(O)c1O (stereo not drawn) [Petunidin-3-O-beta-glucopyranoside]
0.51 min | CN(C)C=O [N,N-Dimethylformamide(DMF)]
1.32 min | O=c1c(O[C@@H]2O[C@H](CO)[C@@H](O)[C@H](O)[C@H]2O)c(-c2ccc(O[C@@H]3O[C@H](CO)[C@@H](O)[C@H](O)[C@H]3O)c(O)c2)oc2cc(O)cc(O)c12 [Quercetin-3,4'-O-di-beta-glucopyranoside]
0.25 min | CCC[C@H](N)C(=O)O [L-Norvaline]
0.17 min | CS(=O)(=O)O [Methanesulfonic acid solution]
1.44 min | COc1cc(C=CC(=O)O)cc(OC)c1O [Sinapic acid]
1.42 min | CC(=O)NC(CC(C)C)C(=O)NC(CC(C)C)C(=O)NC(C=O)CCCN=C(N)N (stereo not given) [Leupeptin hemisulfate salt]
1.51 min | O=Cc1c[nH]c2ccccc12 [Indole-3-carboxyaldehyde]
1.4 min | O=C(O)CCCCCCC(=O)O [Suberic acid]
0.22 min | OCC1OC(OC2C(CO)OC(OC3C(CO)OC(O)C(O)C3O)C(O)C2O)C(O)C(O)C1O (stereo not given) [Maltotriose hydrate]
0.41 min | O=C1CC[C@@H](C(=O)O)N1 [L-Pyroglutamic acid]
